From ChEMBL document CHEMBL3046319, “PCR-RFLP detection of the E198A mutation conferring resistance to benzimidazoles in field isolates of Monilinia laxa from Greece” (Crop Prot, 2012)
≈ marks a conversion by molar mass, not a printed value. Calls of active or inactive are those of the source. The rule behind the calls is not given here.

Legend:
[1] = system: Monilinia laxa; experiment: Fungicidal activity against Monilinia laxa isolate KX4 assessed as reduction in mycelial growth rate at 1 to 10 ug/ml at 28 degC after 8 days; assay type: functional, organism-based
[2] = system: Monilinia laxa; experiment: Fungicidal activity against Monilinia laxa isolate KX1 assessed as reduction in mycelial growth rate at 25 degC after 4 days; assay type: functional, organism-based; conditions: isolate KX1, 96 h
[3] = system: Monilinia laxa; experiment: Fungicidal activity against Monilinia laxa isolate MLK9 assessed as reduction in mycelial growth rate at 1 to 10 ug/ml at 31 degC after 5 days; assay type: functional, organism-based
[4] = system: Monilinia laxa; experiment: Fungicidal activity against Monilinia laxa isolate MLK6 assessed as reduction in mycelial growth rate at 25 degC after 4 days; assay type: functional, organism-based; conditions: isolate MLK6, 96 h
[5] = system: Monilinia laxa; experiment: Fungicidal activity against Monilinia laxa isolate MLBO5 assessed as mean mycelial colony diameter at 25 degC after 4 days; assay type: functional
[6] = system: Monilinia laxa; experiment: Fungicidal activity against Monilinia laxa isolate MLK12 assessed as virulence in prune fruits assessed as virulence treated 10 min prior to mycelial inoculation at 24 degC after 10 days relative to isolate MLX1by pathogenicity bioassay; assay type: functional
[7] = system: Monilinia laxa; experiment: Fungicidal activity against Monilinia laxa isolate MLC3 assessed as reduction in mycelial growth rate at 1 to 10 ug/ml at 28 degC after 8 days; assay type: functional, organism-based
[8] = system: Monilinia laxa; experiment: Fungicidal activity against Monilinia laxa isolate MLK4 assessed as reduction in mycelial growth rate at 1 to 10 ug/ml at 28 degC after 8 days; assay type: functional, organism-based
[9] = system: Monilinia laxa; experiment: Fungicidal activity against Monilinia laxa isolate MLX1 assessed as reduction in mycelial growth rate at 1 to 10 ug/ml at 31 degC after 5 days; assay type: functional, organism-based
[10] = system: Monilinia laxa; experiment: Fungicidal activity against Monilinia laxa isolate MLP7 assessed as reduction in mycelial growth rate at 1 to 10 ug/ml at 31 degC after 5 days; assay type: functional, organism-based
[11] = system: Monilinia laxa; experiment: Fungicidal activity against Monilinia laxa isolate MLA1 assessed as virulence in prune fruits assessed as virulence treated 10 min prior to mycelial inoculation at 24 degC after 10 days relative to isolate MLX1by pathogenicity bioassay; assay type: functional
[12] = system: Monilinia laxa; experiment: Fungicidal activity against Monilinia laxa isolate MLG6 assessed as reduction in mycelial growth rate at 1 to 10 ug/ml at 31 degC after 5 days; assay type: functional, organism-based
[13] = system: Monilinia laxa; experiment: Fungicidal activity against Monilinia laxa isolate MLX5 assessed as reduction in mycelial growth rate at 1 to 10 ug/ml at 28 degC after 8 days; assay type: functional, organism-based
[14] = system: Monilinia laxa; experiment: Fungicidal activity against Monilinia laxa isolate MLK12 assessed as mean mycelial colony diameter at 25 degC after 4 days; assay type: functional
[15] = system: Monilinia laxa; experiment: Fungicidal activity against Monilinia laxa isolate MLC1 assessed as reduction in mycelial growth rate at 1 to 10 ug/ml at 31 degC after 5 days; assay type: functional, organism-based
[16] = system: Monilinia laxa; experiment: Fungicidal activity against Monilinia laxa isolate MLBO8 assessed as reduction in mycelial growth rate at 25 degC after 4 days; assay type: functional, organism-based; conditions: isolate MLBO8, 96 h
[17] = system: Monilinia laxa; experiment: Fungicidal activity against Monilinia laxa isolate KX5 assessed as reduction in mycelial growth rate at 1 to 10 ug/ml at 28 degC after 8 days; assay type: functional, organism-based
[18] = system: Monilinia laxa; experiment: Fungicidal activity against Monilinia laxa isolate MLBO7 assessed as reduction in mycelial growth rate at 1 to 10 ug/ml at 31 degC after 5 days; assay type: functional, organism-based
[19] = system: Monilinia laxa; experiment: Fungicidal activity against Monilinia laxa isolate MLX1 assessed as reduction in mycelial growth rate at 1 to 10 ug/ml at 28 degC after 8 days; assay type: functional, organism-based
[20] = system: Monilinia laxa; experiment: Fungicidal activity against Monilinia laxa isolate MLBO3 assessed as reduction in mycelial growth rate at 1 to 10 ug/ml at 31 degC after 5 days; assay type: functional, organism-based
[21] = system: Monilinia laxa; experiment: Fungicidal activity against Monilinia laxa isolate MLX5 assessed as mean mycelial colony diameter at 25 degC after 4 days; assay type: functional
[22] = system: Monilinia laxa; experiment: Fungicidal activity against Monilinia laxa isolate MLG2 assessed as reduction in mycelial growth rate at 25 degC after 4 days; assay type: functional, organism-based; conditions: isolate MLG2, 96 h
[23] = system: Monilinia laxa; experiment: Fungicidal activity against Monilinia laxa isolate MLA1 assessed as mean number of conidia produced in the colony at 25 degC after 12 days by haemocytometer; assay type: functional
[24] = system: Monilinia laxa; experiment: Fungicidal activity against Monilinia laxa isolate KX3 assessed as reduction in mycelial growth rate at 25 degC after 4 days; assay type: functional, organism-based; conditions: isolate KX3, 96 h
[25] = system: Monilinia laxa; experiment: Fungicidal activity against Monilinia laxa isolate MLB1 assessed as reduction in mycelial growth rate at 1 to 10 ug/ml at 31 degC after 5 days; assay type: functional, organism-based
[26] = system: Monilinia laxa; experiment: Fungicidal activity against Monilinia laxa isolate MLK12 assessed as mycelial growth at 1 ug/ml at 25 degC after 4 days; assay type: functional
[27] = system: Monilinia laxa; experiment: Fungicidal activity against Monilinia laxa isolate MLA1 assessed as reduction in mycelial growth rate at 1 to 10 ug/ml at 31 degC after 5 days; assay type: functional, organism-based
[28] = system: Monilinia laxa; experiment: Fungicidal activity against Monilinia laxa isolate MLK8 assessed as reduction in mycelial growth rate at 25 degC after 4 days; assay type: functional, organism-based; conditions: isolate MLK8, 96 h
[29] = system: Monilinia laxa; experiment: Fungicidal activity against Monilinia laxa isolate MLC2 assessed as reduction in mycelial growth rate at 1 to 10 ug/ml at 25 to 28 degC; assay type: functional, organism-based
[30] = system: Monilinia laxa; experiment: Fungicidal activity against Monilinia laxa isolate MLX5 assessed as virulence in prune fruits assessed as virulence treated 10 min prior to mycelial inoculation at 24 degC after 10 days relative to isolate MLX1by pathogenicity bioassay; assay type: functional
[31] = system: Monilinia laxa; experiment: Fungicidal activity against Monilinia laxa isolate MLP4 assessed as reduction in mycelial growth rate at 25 degC after 4 days; assay type: functional, organism-based; conditions: isolate MLP4, 96 h
[32] = system: Monilinia laxa; experiment: Fungicidal activity against Monilinia laxa isolate MLP4 assessed as virulence in prune fruits assessed as virulence treated 10 min prior to mycelial inoculation at 24 degC after 10 days relative to isolate MLX1by pathogenicity bioassay; assay type: functional
[33] = system: Monilinia laxa; experiment: Fungicidal activity against Monilinia laxa isolate MLP7 assessed as reduction in mycelial growth rate at 25 degC after 4 days; assay type: functional, organism-based; conditions: isolate MLP7, 96 h
[34] = system: Monilinia laxa; experiment: Fungicidal activity against Monilinia laxa isolate MLBO6 assessed as reduction in mycelial growth rate at 25 degC after 4 days; assay type: functional, organism-based; conditions: isolate MLBO6, 96 h
[35] = system: Monilinia laxa; experiment: Fungicidal activity against Monilinia laxa isolate MLG1 in prune fruits assessed as virulence treated 10 min prior to mycelial inoculation at 24 degC after 10 days relative to isolate MLX1by pathogenicity bioassay; assay type: functional
[36] = system: Monilinia laxa; experiment: Fungicidal activity against Monilinia laxa isolate KX4 assessed as reduction in mycelial growth rate at 25 degC after 4 days; assay type: functional, organism-based; conditions: isolate KX4, 96 h
[37] = system: Monilinia laxa; experiment: Fungicidal activity against Monilinia laxa isolate MLB1 assessed as reduction in mycelial growth rate at 25 degC after 4 days; assay type: functional, organism-based; conditions: isolate MLB1, 96 h
[38] = system: Monilinia laxa; experiment: Fungicidal activity against Monilinia laxa isolate MLP4 assessed as reduction in mycelial growth rate at 1 to 10 ug/ml at 28 degC after 8 days; assay type: functional, organism-based
[39] = system: Monilinia laxa; experiment: Fungicidal activity against Monilinia laxa isolate MLNS1 assessed as reduction in mycelial growth rate at 25 degC after 4 days; assay type: functional, organism-based; conditions: isolate MLNS1, 96 h
[40] = system: Monilinia laxa; experiment: Fungicidal activity against Monilinia laxa isolate MLK6 assessed as reduction in mycelial growth rate at 1 to 10 ug/ml at 25 to 28 degC; assay type: functional, organism-based
[41] = system: Monilinia laxa; experiment: Fungicidal activity against Monilinia laxa isolate MLB1 assessed as reduction in mycelial growth rate at 1 to 10 ug/ml at 25 to 28 degC; assay type: functional, organism-based

In the case of `COC(=O)Nc1nc2ccccc2[nH]1` [CARBENDAZIM], the inhibition [1] is reported as “inactive”, the EC50 [2] is reported as 0.06 µg/mL (≈ 0.314 µM) and the inhibition [3] is reported as “Active”. For the same compound, the EC50 [4] was > 50 µg/mL, the Activity [5] was 29.5 mm and the Activity [6] was 99.2%. For the same compound, the inhibition [7] was “inactive”, the inhibition [8] was “inactive” and the inhibition [9] was “Active”. The inhibition [10] was “Active”, the Activity [11] was 90.33% and the inhibition [12] was “Active”. The inhibition [13] was “inactive”, the Activity [14] was 31 mm and the inhibition [15] was “Active”. The EC50 [16] was 0.06 µg/mL (≈ 0.314 µM), the inhibition [17] was “inactive” and the inhibition [18] was “Active”. For the same compound, the inhibition [19] was “inactive”, the inhibition [20] was “Active” and the Activity [21] was 28.3 mm. For the same compound, the EC50 [22] was 0.08 µg/mL (≈ 0.418 µM), the Activity [23] was 5 /cm2 and the EC50 [24] was 0.09 µg/mL (≈ 0.471 µM). For the same compound, the inhibition [25] was “Active”, the Activity [26] was 95.82% and the inhibition [27] was “Active”. For the same compound, the EC50 [28] was 0.09 µg/mL (≈ 0.471 µM), the inhibition [29] was “inactive” and the Activity [30] was 96.29%. The EC50 [31] was > 50 µg/mL, the Activity [32] was 100% and the EC50 [33] was > 50 µg/mL. For the same compound, the EC50 [34] was 0.12 µg/mL (≈ 0.628 µM), the Activity [35] was 100% and the EC50 [36] was > 50 µg/mL. For the same compound, the EC50 [37] was > 50 µg/mL, the inhibition [38] was “inactive” and the EC50 [39] was > 50 µg/mL. For the same compound, the inhibition [40] was “inactive” and the inhibition [41] was “inactive”.
